Values after ≈ are worked out from the molar mass of the structure shown. Values joined by “and” are separate entries in the source; they are usually repeats but may differ in a detail not shown here. Equal values may be shown once.
What was measured:
M. globosa CYP5218 [1] = biological target: T1, M. globosa CYP5218 (Malassezia globosa, UniProt A8QCD3, A3L/A5L/F6A/I7V/S4L/S8F); test: biochemical; type: binding; conditions: for binding spectra with CYP5218: result in words
Description: Reduced carbon monoxide difference spectroscopy[46][47] and absolute spectra between 700 and 300 nm were used to determine cytochrome P450 concentrations. Substrate and azole binding studies were performed[31][48] using 2.5 mM stock sterol solutions in 40% (wt/vol) (2-hydroxypropyl)-β-cyclodextrin (HPCD), 4 mg ml^−1 solutions of fatty acids in dimethylformamide (DMF), and stock 0.05, 0.1 and 0.2 mg ml^−1 solutions of azole antifungal agents in dimethylsulfoxide (DMSO). Sterols were titrated against 5 μM CYP51, fatty acids were titrated against 4 μM CYP5218 and azole antifungal agents were titrated against 2 μM CYP51 and CYP5218. The absorbance difference spectrum between 500 and 350 nm was determined after each incremental addition of ligand with saturation curves constructed from ΔApeak-trough against ligand concentration. […] The dissociation constants of the enzyme-azole complex were determined by non-linear regression (Levenberg-Marquardt algorithm) using a rearrangement of the Morrison equation for tight ligand binding. ProFit 6.1.12 (QuantumSoft, Zurich, Switzerland) was used for curve-fitting data. All ligand-binding studies were performed at 22 ± 2 °C and in triplicate. All spectral determinations were made using a Hitachi U-3310 UV/VIS spectrophotometer (San Jose, California).

M. globosa CYP5218 [2] = biological target: T1, M. globosa CYP5218; test: biochemical; type: binding; conditions: for azole binding to CYP5218 (binding spectra): 2 μM CYP5218, result in words; for Kd: azole titrated against 2 μM CYP5218
Description: (§1) Reduced carbon monoxide difference spectroscopy[46][47] and absolute spectra between 700 and 300 nm were used to determine cytochrome P450 concentrations. Substrate and azole binding studies were performed[31][48] using 2.5 mM stock sterol solutions in 40% (wt/vol) (2-hydroxypropyl)-β-cyclodextrin (HPCD), 4 mg ml^−1 solutions of fatty acids in dimethylformamide (DMF), and stock 0.05, 0.1 and 0.2 mg ml^−1 solutions of azole antifungal agents in dimethylsulfoxide (DMSO). Sterols were titrated against 5 μM CYP51, fatty acids were titrated against 4 μM CYP5218 and azole antifungal agents were titrated against 2 μM CYP51 and CYP5218. The absorbance difference spectrum between 500 and 350 nm was determined after each incremental addition of ligand with saturation curves constructed from ΔApeak-trough against ligand concentration. The dissociation constants (Kd) for sterols and fatty acids were determined by non-linear regression (Levenberg-Marquardt algorithm) using the Michaelis-Menten equation. The dissociation constants of the enzyme-azole complex were determined by non-linear regression (Levenberg-Marquardt algorithm) using a rearrangement of the Morrison equation for tight ligand binding. ProFit 6.1.12 (QuantumSoft, Zurich, Switzerland) was used for curve-fitting data. All ligand-binding studies were performed at 22 ± 2 °C and in triplicate. All spectral determinations were made using a Hitachi U-3310 UV/VIS spectrophotometer (San Jose, California).

M. globosa CYP51 [3] = biological target: T2, M. globosa CYP51 (Malassezia globosa, UniProt A8Q3I7, A7V/E4L/G6A/I5L/L2A/Q3L/W8F); test: biochemical; type: binding
Description: as §1

M. globosa ATCC MYA-4612 = test: M. globosa MIC100 determination; type: cell-based, Malassezia globosa; conditions: Malassezia globosa, 168 h; modified Dixon medium, 30 °C, 7 days; read-out: MIC100
Description: M. globosa ATCC MYA-4612 was grown for 7 days at 30 °C in modified Dixon medium (3.6% malt extract, 2% desiccated ox-bile, 1% Tween 40, 0.6% peptone, 0.2% glycerol, 0.2% oleic acid, pH adjusted to 6 with HCl) until a culture density of 1.5 × 10^5 cells ml^−1 was obtained. Cells from 3 ml of stock culture were harvested, suspended in 1 ml of saline and used to inoculate 30 ml of fresh modified Dixon medium for use as M. globosa inoculums in MIC determinations. Stock azole concentrations of 1600, 800, 400, 200, 100, 50, 25, 12.5, 6.25, 3.125 and 0 μg ml^−1 were prepared in DMSO. These were diluted ten-fold with fresh modified Dixon media and 20 μl of the diluted azole solutions were then mixed with 180 μl of M. globosa inoculum in microtiter plate wells to yield final azole concentrations of 16, 8, 4, 2, 1, 0.5, 0.25, 0.125, 0.0625, 0.03125 and 0 μg ml^−1. The microtiter plates were incubated at 30 °C for 7 days and then read. Each azole MIC100 determination was performed in triplicate.

M. globosa CYP51 [4] = biological target: T2, M. globosa CYP51; conditions: 0.5 μM CYP51, 50 μM sterol substrate
Description: (§2) Sterol metabolites were recovered by extraction with ethyl acetate followed by derivatization with 0.1 ml N,O-bis(trimethylsilyl)trifluoroacetamide (BSTFA) : trimethylchlorosilane (TMCS) (99:1) and 0.3 ml anhydrous pyridine (2 h at 80 °C) prior to analysis by gas chromatography mass spectrometry (GC/MS)[53].

M. globosa CYP51 [5] = biological target: T2, M. globosa CYP51; test: biochemical; conditions: IC50, 0.5 μM CYP51, CYP51:AfCPR1 1:2, 50 μM lanosterol as substrate
Description: as §2

M. globosa [6] = test: Sterol analysis of azole-treated M. globosa; type: cell-based, Malassezia globosa; conditions: 0.125 μg ml^−1 ketoconazole
Description: Individual sterols were identified by reference to relative retention times, mass ions and fragmentation patterns. Sterol composition was calculated using peak areas.

M. globosa CYP5218 [7] = biological target: T1, M. globosa CYP5218; conditions: 100 μM fatty acid, 1 hour to overnight (~16 h), three different cytochrome P450 reductase redox partners
Description: The CYP5218 fatty acid reconstitution assay system used was based on that previously described by Guengerich[54] and contained 200 nM of CYP5218, 500 nM of cytochrome P450 reductase (A. fumigatus CPR1[52]) or H. sapiens CPR[55] or C. albicans CPR[56], 50 μM DLPC, 100 μM fatty acid (lauric acid, myristic acid, palmitic acid, palmitoleic acid, oleic acid and linoleic acid), 4 mM glucose-6-phosphate, 3 U/ml yeast glucose-6-phosphate dehydrogenase in a final volume of 500 μl with 0.1 M potassium phosphate (pH 7.4). Assay mixtures were incubated at 37 °C for 5 min prior to initiation with 4 mM β-NADPHNa4 and then incubated for a further 60 min or overnight (~16 h) at 37 °C. Fatty acid metabolites were recovered by extraction with dichloromethane and dried in a vacuum centrifuge. Samples were derivatized with 200 μl anhydrous pyridine and 250 μl BSTFA:TMCS (99:1) (30 min at 80 °C) and extracted with 500 μl of hexane, prior to analysis by GC/MS (Thermo GC Trace 1300 and ISQ MS). GC analysis was performed with a 5% phenyl methylpolysiloxane column (DB5) (Agilent Technologies). The oven programme was as follows: initial: 70 °C, with 3 min hold; ramp: 10 °C min^−1 to 180 °C (held for 2 min), 10 °C min^−1 to 250 °C (held for 2 min) and 10 °C min^−1 to 280 °C (held for 2 min). Data were analyzed using Thermo Xcalibur 2.2 software.

M. globosa [8] = conditions: cited from earlier work
[9] = system: C=C(CC[C@@H](C)[C@H]1CC[C@@]2(C)C3=C(CC[C@]12C)[C@@]1(C)CC[C@H](O)[C@@H](C)[C@@H]1CC3)C(C)C; test: purified protein, by the assay type; conditions: other: 0.13 μM CYP51, 0.5 μM AfCPR1, 5 min at 37 °C, substrate inhibition equation
Description: (§3) Assay mixtures were incubated at 37 °C for 10 minutes prior to initiation with 4 mM β-NADPHNa4 followed by shaking at 37 °C for 20 minutes. Sterol metabolites were recovered by extraction with ethyl acetate followed by derivatization with 0.1 ml N,O-bis(trimethylsilyl)trifluoroacetamide (BSTFA) : trimethylchlorosilane (TMCS) (99:1) and 0.3 ml anhydrous pyridine (2 h at 80 °C) prior to analysis by gas chromatography mass spectrometry (GC/MS)[53].

[10] = system: C=C(CC[C@@H](C)[C@H]1CC[C@@]2(C)C3=C(CC[C@]12C)[C@@]1(C)CC[C@H](O)C(C)(C)[C@@H]1CC3)C(C)C; test: purified protein, by the assay type; conditions: other: 0.13 μM CYP51, 0.5 μM AfCPR1, 5 min at 37 °C, substrate inhibition equation
Description: as §3

[11] = 4 μM CYP5218, type I spectra, mean of three replicates with SD

T2 sequence (A8Q3I7 whole entry L2A/Q3L/E4L/I5L/G6A/A7V/W8F): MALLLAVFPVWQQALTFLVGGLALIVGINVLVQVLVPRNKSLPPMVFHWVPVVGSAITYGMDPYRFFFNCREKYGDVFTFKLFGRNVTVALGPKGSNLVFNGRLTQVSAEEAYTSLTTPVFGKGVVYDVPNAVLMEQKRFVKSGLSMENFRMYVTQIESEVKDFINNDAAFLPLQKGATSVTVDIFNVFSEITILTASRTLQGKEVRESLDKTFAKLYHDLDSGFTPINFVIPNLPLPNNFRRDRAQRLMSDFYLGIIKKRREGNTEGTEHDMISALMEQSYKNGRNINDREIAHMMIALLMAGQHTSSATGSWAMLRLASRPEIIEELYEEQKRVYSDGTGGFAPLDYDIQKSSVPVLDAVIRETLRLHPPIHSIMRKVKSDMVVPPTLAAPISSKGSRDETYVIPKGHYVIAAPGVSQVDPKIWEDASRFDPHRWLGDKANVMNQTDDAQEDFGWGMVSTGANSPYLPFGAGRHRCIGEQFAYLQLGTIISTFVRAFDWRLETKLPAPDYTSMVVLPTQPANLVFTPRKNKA

Compound: CCCCCCCCCCCCCCCCCC(=O)O [Stearic acid, stearic acid]
- CYP5218 Kd (μM) Eadie-Hofstee (M. globosa CYP5218 [1]; [11]): no fit ^a
- CYP5218 Kd (μM) Michaelis-Menten (M. globosa CYP5218 [1]; [11]): no fit ^a

Compound: Clc1ccccc1C(c1ccccc1)(c1ccccc1)n1ccnc1 [clotrimazole]
- azole binding to CYP5218 (binding spectra) (M. globosa CYP5218 [2]): type II binding spectra
- Kd (M. globosa CYP5218 [2]): ~500 nM and 486 nM
- Kd (M. globosa CYP51 [3]): 4 ± 2 nM
- MIC (M. globosa ATCC MYA-4612): 8 µg/mL (≈ 23.2 µM)

Compound: C=C(CC[C@@H](C)[C@H]1CC[C@@]2(C)C3=C(CC[C@]12C)[C@@]1(C)CC[C@H](O)C(C)(C)[C@@H]1CC3)C(C)C [eburicol]
- binding spectra with CYP5218 (M. globosa CYP5218 [1]): failed to give reproducible binding spectra
- turnover number (M. globosa CYP51 [4]): 5.6 min⁻¹
- Kd (M. globosa CYP51 [3]): 23000 nM

Compound: CCC(C)n1ncn(-c2ccc(N3CCN(c4ccc(OCC5COC(Cn6cncn6)(c6ccc(Cl)cc6Cl)O5)cc4)CC3)cc2)c1=O (stereo not shown) [itraconazole]
- azole binding to CYP5218 (binding spectra) (M. globosa CYP5218 [2]): type II binding spectra
- Kd (M. globosa CYP5218 [2]): ~400 nM and 407 nM
- Kd (M. globosa CYP51 [3]): 2 ± 1 nM
- IC50 (M. globosa CYP51 [5]): 188 ± 8 nM
- MIC (M. globosa ATCC MYA-4612): 0.0625 µg/mL (≈ 0.0886 µM)

Compound: CC(=O)N1CCN(c2ccc(OCC3COC(Cn4ccnc4)(c4ccc(Cl)cc4Cl)O3)cc2)CC1 (stereo not shown) [ketoconazole]
- sterol fraction (%) 4,4-dimethylzymosterol (M. globosa [6]): 0%
- sterol fraction (%) Eburicol (M. globosa [6]): 30.33%
- sterol fraction (%) Episterol (M. globosa [6]): 0%
- sterol fraction (%) Ergosta-7-enol (M. globosa [6]): 1.58%
- sterol fraction (%) Ergosta-8,22-dienol (M. globosa [6]): 1.89%
- sterol fraction (%) Ergosta-8-enol (M. globosa [6]): 2.23%
- sterol fraction (%) Ergosterol (M. globosa [6]): 51.50%
- sterol fraction (%) Fecosterol (M. globosa [6]): 0.98%
- sterol fraction (%) Obtusifoliol (M. globosa [6]): 0.18%
- sterol fraction (%) Cholesterol (M. globosa [6]; cholesterol assimilated from growth media): 1.92%
- azole binding to CYP5218 (binding spectra) (M. globosa CYP5218 [2]): type II binding spectra
- Kd (M. globosa CYP5218 [2]): ~1600 nM
- Kd (M. globosa CYP51 [3]): 2 ± 1 nM
- IC50 (M. globosa CYP51 [5]): 176 ± 16 nM
- MIC (M. globosa ATCC MYA-4612): 0.25 µg/mL (≈ 0.47 µM)

Compound: CC(C)=CCC[C@@H](C)[C@H]1CC[C@@]2(C)C3=C(CC[C@]12C)[C@@]1(C)CC[C@H](O)C(C)(C)[C@@H]1CC3 [lanosterol]
- binding spectra with CYP5218 (M. globosa CYP5218 [1]): failed to give reproducible binding spectra
- turnover number (M. globosa CYP51 [4]): 1.7 min⁻¹
- Kd (M. globosa CYP51 [3]): 32000 nM

Compound: CCCCC/C=C\C/C=C\CCCCCCCC(=O)O [linoleic acid]
- product formation in CYP5218 reconstitution assay (M. globosa CYP5218 [7]): no observed product formation
- Kd (M. globosa CYP5218 [1]; CYP5218 Kd (μM) Eadie-Hofstee, 4 μM CYP5218, type I spectra, mean of three replicates with SD): 36 ± 6 µM
- Kd (M. globosa CYP5218 [1]; CYP5218 Kd (μM) Michaelis-Menten, 4 μM CYP5218, type I spectra, mean of three replicates with SD): 36 µM

Compound: CCCCCCCCCCCCCCCC [n-hexadecane]
- binding spectra with CYP5218 (M. globosa CYP5218 [1]): No binding spectra

Compound: C=C(CC[C@@H](C)[C@H]1CC[C@@]2(C)C3=C(CC[C@]12C)[C@@]1(C)CC[C@H](O)[C@@H](C)[C@@H]1CC3)C(C)C [obtusifoliol]
- turnover number (M. globosa CYP51 [4]): 3.4 min⁻¹
- Kd (M. globosa CYP51 [3]): 28000 nM

Compound: CC[C@@H]([C@H](C)O)n1ncn(-c2ccc(N3CCN(c4ccc(OC[C@@H]5CO[C@@](Cn6cncn6)(c6ccc(F)cc6F)C5)cc4)CC3)cc2)c1=O [posaconazole]
- MIC values previously reported (M. globosa [8]): 0.06 µg/mL (≈ 0.0856 µM)

Compound: C[C@@H](c1ncncc1F)[C@](O)(Cn1cncn1)c1ccc(F)cc1F [voriconazole]
- Kd (M. globosa CYP5218 [2]): ~107000 nM
- Kd (M. globosa CYP51 [3]): 8 ± 5 nM
- MIC (M. globosa ATCC MYA-4612): 1 µg/mL (≈ 2.86 µM)

Compound: M. globosa CYP51 (Malassezia globosa CBS 7966; A7V/E4L/G6A/I5L/L2A/Q3L/W8F)
- Km [9]: 42.09 ± 10.45 µM
- kcat [9]: 53.69 ± 14.21 min⁻¹
- Km [10]: 55.91 ± 19.79 µM
- kcat [10]: 65.54 ± 16.05 min⁻¹

Reference: publication PMC4904373, “Azole Antifungal Sensitivity of Sterol 14α-Demethylase (CYP51) and CYP5218 from Malassezia globosa” (Scientific Reports, 2016)
